In test [1] the test system is IgG2a production. Nature of the test: Test 4 (comparison): inhibition of IgG2a production. Format: in vivo, Balb/c mouse. The conditions noted are these: 100 mg/kg orally once a day; for inhibition at 100 mg/kg: Mus musculus, po, Day 1 to Day 10, spleen cells, DNP-BSA 5 μg/ml, 24 hours, read-out: Inhibition rate of IgG2a production; for effects on the production of IgG2a: in words. On the procedure: (§1) Test 4: Test on the inhibition of IgE production
(§2) To a Balb/c mouse, the DNP-labeled ascaris antigen (5 μg) and Alum (1 mg) were intraperitoneally administered on Day 1 and Day 6 to sensitize the mouse with the antibody. From Day 1 to Day 10, a medicament was orally administered at a dose of 100 mg/kg once a day. On Day 11, the mouse was subjected to splenectomy and the spleen so obtained was untangled into its cells. To 5×10^7 cells/ml of the spleen cells so obtained, DNP-BSA (5 μg/ml) was added, followed by incubation at 37° C. for 24 hours. After incubation, 100 μl of the supernatant were collected and subjected to the measurement an IgE measuring kit (Yamasa Co., Ltd.). In order to determine IgG1, IgG2a and IgM, the absorbance of the incubated supernatant was measured by the EIA method and provided for comparison. The inhibition rate of IgE production was calculated according to the below-described formula. Inhibition rates of the IgG1, IgG2a and IgM production were similarly calculated, respectively. [formula]

Test [2] relates to IL-4 production. Nature of the test: Test 2: inhibition of IL-4 production in human T-cell strain ATL-16T(-) stimulated with PMA (Bio Source EIA). In kind it is cell-based. Conditions: ATL-16T(-) 5×10^5 cells/0.5 ml/well, 20 nM PMA, 48 hours, read-out: Inhibition rate of IL-4 production; for inhibition at 10 µM: 10^-5 M; for inhibition at 1 µM: 10^-6 M; for inhibition at 0.1 µM: 10^-7 M; for inhibition at 0.01 µM: 10^-8 M. As to the method: Test 2: Test on the inhibition of IL-4 production
Into individual wells of a 48-well microplate, the human T-cell strain ATL-16T(-) was poured at a concentration of 5×10^5 cells/0.5 ml/well (n=3), followed by the addition of a stimulator (20 nM of PMA) and a medicament at the same time. The resulting mixture was incubated in 5% CO2 at 37° C. for 48 hours. After incubation, 50 μl of the supernatant were collected and subjected to measurement by a human IL-4 EIA kit (BIO SOURCE, INC.). The inhibition rate was calculated according to the following formula. [formula]

The test system of test [3] is IgE production. Put plainly: Test 4: inhibition of IgE production by spleen cells of orally treated sensitized mice. The conditions noted are these: Mus musculus, po, 100 mg/kg orally once a day, Day 1 to Day 10, DNP-BSA 5 μg/ml, 24 hours, read-out: Inhibition rate of IgE production. Format: in vivo, Balb/c mouse. As to the method: as §1, §2
Test [4] has as its system IgG1 production. Put plainly: Test 4 (comparison): inhibition of IgG1 production. In kind it is in vivo, Balb/c mouse. Conditions: 100 mg/kg orally once a day; for inhibition at 100 mg/kg: Mus musculus, po, Day 1 to Day 10, spleen cells, DNP-BSA 5 μg/ml, 24 hours, read-out: Inhibition rate of IgG1 production; for effects on the production of IgG1: in words. As to the method:
as §1, §2

Test [5] concerns IL-5 production. Nature of the test: Test 3: inhibition of IL-5 production in human PBMC stimulated with ConA. Format: cell-based. Conditions: 10^-6 M, 10 μg/ml ConA, 48 hours, read-out: Inhibition rate of IL-5 production. In a few lines: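 Human PBMC from a normal volunteer, 1×10^6 cells/ml in AIM-V, stimulated with 10 μg/ml ConA alongside compound and incubated 48 h at 37 °C, 5% CO2. Supernatant IL-5 quantified by EIA; inhibition rate calculated from a formula.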

The test system of test [6] is IgM production. Nature of the test: Test 4 (comparison): inhibition of IgM production. Format: in vivo, Balb/c mouse. The conditions noted are these: 100 mg/kg orally once a day; for inhibition at 100 mg/kg: Mus musculus, po, Day 1 to Day 10, spleen cells, DNP-BSA 5 μg/ml, 24 hours, read-out: Inhibition rate of IgM production; for effects on the production of IgM: in words. As to the method:
as §1, §2

Test [7] has as its system IL-4 production. Put plainly: Test 1: inhibition of IL-4 production in human T-cell strain ATL-16T(-) stimulated with PMA (R&D Systems EIA). Conditions: ATL-16T(-) 1×10^6 cells/0.5 ml/well, 20 nM PMA, 48 hours, read-out: Inhibition rate of IL-4 production. Format: cell-based. In a few lines: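 ATL-16T(-) cells at 1×10^6 cells/0.5 ml/well (n=3) were stimulated with 20 nM PMA and given compound at the same time, then incubated 48 h at 37° C in 5% CO2. Supernatant IL-4 was measured by EIA, and percent inhibition was calculated.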

Broadly, the inhibition is the change of the read-out against control, counted positive when it falls.

Where a name gives a salt, the structure may show the parent alone.

As to `CCOC(=O)CCCOc1cc(/C=C/C(=O)c2c(OC)cccc2OC)ncc1OC` [Ex. 86, Ethyl 4-[5-methoxy-2-(3-(2,6-dimethoxyphenyl)-3-oxo-1-propenyl)-4-pyridyloxy]butanoate hydrochloride], the inhibition at 100 mg/kg in test [1] is 6.2%; in test [3], 35.9%; in test [4], -1.1%; in test [6], -2.7%. Also, in test [2], the inhibition at 10 µM was found to be 94.6%. The inhibition at 1 µM was determined as 80.1% in test [2] and 71.9% in test [5]. In addition, in test [2], the inhibition at 0.1 µM turned out to be 77.6%. Besides, in test [2], the inhibition at 0.01 µM came out at 73.6%.
As to `COc1cnc(/C=C/C(=O)c2ccccc2OC)cc1OCCCCCC(=O)O` [Ex. 105, 6-[5-Methoxy-2-(3-(2-methoxyphenyl)-3-oxo-1-propenyl)-4-pyridyloxy]hexanoicacid], in test [1], the inhibition at 100 mg/kg was -1.8% and the “effects on the production of IgG2a” value was “No effects were observed”. In addition, in test [2], the inhibition at 10 µM worked out at 101%, the inhibition at 1 µM came to 70.9%, the inhibition at 0.1 µM amounted to 69.6% and the inhibition at 0.01 µM turned out to be 68.7%. Moreover, the inhibition at 100 mg/kg in test [3] came to 47.7%. Moreover, in test [4], the inhibition at 100 mg/kg is -4.2% and the “effects on the production of IgG1” value is recorded as “No effects were observed”. Further, the inhibition at 1 µM in test [5] was found to be 71%. Further, in test [6], the inhibition at 100 mg/kg amounted to 0.5% and the “effects on the production of IgM” value is “No effects were observed”.
As to `CCOC(=O)CCCCCCOc1cc(/C=C/C(=O)c2ccccc2OC)ncc1OC` [Ex. 96, Ethyl 7-[5-methoxy-2-(3-(2-methoxyphenyl)-3-oxo-1-propenyl)-4-pyridyloxy]heptanoate hydrochloride], in test [1], the inhibition at 100 mg/kg amounted to 8.3% and the “effects on the production of IgG2a” value is “No effects were observed”. For the same compound, in test [2], the inhibition at 10 µM was determined as 102%, the inhibition at 1 µM stood at 76.2%, the inhibition at 0.1 µM is 78.6% and the inhibition at 0.01 µM stood at 78.2%. Also, the inhibition at 100 mg/kg in test [3] was found to be 63.2%. In test [4], the inhibition at 100 mg/kg was determined as 5% and the “effects on the production of IgG1” value is “No effects were observed”. Moreover, in test [5], the inhibition at 1 µM came out at 79.8%. For the same compound, in test [6], the inhibition at 100 mg/kg came to 9.6% and the “effects on the production of IgM” value is on record as “No effects were observed”.
In the case of `CCOC(=O)CCCCCCCOc1cc(/C=C/C(=O)c2ccccc2OC)ncc1OC` [Ex. 98, Ethyl 8-[5-methoxy-2-(3-(2-methoxyphenyl)-3-oxo-1-propenyl)-4-pyridyloxy]octanoate hydrochloride], in test [1], the inhibition at 100 mg/kg is -4.1% and the “effects on the production of IgG2a” value was “No effects were observed”. Also, in test [2], the inhibition at 10 µM was found to be 100%, the inhibition at 1 µM came to 85.6%, the inhibition at 0.1 µM turned out to be 76.1% and the inhibition at 0.01 µM is 75.7%. Further, the inhibition at 100 mg/kg in test [3] was 50.1%. In test [4], the inhibition at 100 mg/kg amounted to 5.4% and the “effects on the production of IgG1” value is reported as “No effects were observed”. For the same compound, the inhibition at 1 µM in test [5] is 96.8%. In addition, in test [6], the inhibition at 100 mg/kg is -2.6% and the “effects on the production of IgM” value is “No effects were observed”.
As for `CCOC(=O)CCCCCOc1cc(/C=C/C(=O)c2cc(OC)ccc2OC)ncc1OC` [Ex. 88, Ethyl 6-[5-methoxy-2-(3-(2,5-dimethoxyphenyl)-3-oxo-1-propenyl)-4-pyridyloxy]hexanoate hydrochloride], the inhibition at 100 mg/kg is 8.6% in test [1], 22.7% in test [3], -6.9% in test [4] and -4.2% in test [6]. Moreover, the inhibition at 10 µM in test [2] was 74.2%. In addition, the inhibition at 1 µM in test [2] worked out at 74.4%; in test [5], 61.6%. In addition, the inhibition at 0.1 µM in test [2] was determined as 71.7%. Further, in test [2], the inhibition at 0.01 µM was determined as 68%.
Turning to `CCOC(=O)CCCCCOc1cc(/C=C/C(=O)C2CCCCC2)ncc1OC` [Ex. 77, Ethyl 6-[2-(3-cyclohexyl-3-oxo-1-propenyl)-5-methoxy-4-pyridyloxy]hexanoatehydrochloride], in test [1], the inhibition at 100 mg/kg is -3.9% and the “effects on the production of IgG2a” value is given as “No effects were observed”. Moreover, in test [2], the inhibition at 10 µM stood at 68.6%, the inhibition at 1 µM turned out to be 66%, the inhibition at 0.1 µM is 65% and the inhibition at 0.01 µM was determined as 64.5%. The inhibition at 100 mg/kg in test [3] stood at 55.8%. For the same compound, in test [4], the inhibition at 100 mg/kg was -6.3% and the “effects on the production of IgG1” value is listed as “No effects were observed”. For the same compound, the inhibition at 1 µM in test [5] came to 82%. For the same compound, in test [6], the inhibition at 100 mg/kg came out at 1.2% and the “effects on the production of IgM” value was “No effects were observed”.
On to `CCOC(=O)CCCOc1cc(/C=C/C(=O)c2cc(OC)ccc2OC)ncc1OC` [Ex. 87, Ethyl 4-[5-methoxy-2-(3-(2,5-dimethoxyphenyl)-3-oxo-1-propenyl)-4-pyridyloxy]butanoate hydrochloride], for which the inhibition at 100 mg/kg in test [1] is -8.1%; in test [3], 30.5%; in test [4] it was -3.4%; in test [6], -0.1%. Further, the inhibition at 10 µM in test [2] was 78.3%. Besides, the inhibition at 1 µM in test [2] came out at 73.4%; in test [5], 90.2%. Further, the inhibition at 0.1 µM in test [2] amounted to 72.2%. In addition, the inhibition at 0.01 µM in test [2] turned out to be 69.3%.
As for `CCOC(=O)CCCCCOc1cc(/C=C/C(=O)c2ccccc2OC)ncc1OC` [Ex. 94, Ethyl 6-[5-methoxy-2-(3-(2-methoxyphenyl)-3-oxo-1-propenyl)-4-pyridyloxy]hexanoate hydrochloride], in test [1], the inhibition at 100 mg/kg worked out at 2.8% and the “effects on the production of IgG2a” value is “No effects were observed”. Also, in test [2], the inhibition at 10 µM was determined as 74.4%, the inhibition at 1 µM is 70.4%, the inhibition at 0.1 µM turned out to be 66.5% and the inhibition at 0.01 µM stood at 62.3%. In addition, in test [3], the inhibition at 100 mg/kg turned out to be 63.4%. Further, in test [4], the inhibition at 100 mg/kg came to 7% and the “effects on the production of IgG1” value is given as “No effects were observed”. The inhibition at 1 µM in test [5] amounted to 95.2%. Besides, in test [6], the inhibition at 100 mg/kg was -1.6% and the “effects on the production of IgM” value was “No effects were observed”.
Take `COc1cnc(/C=C/C(=O)c2ccccc2)cc1O` [Ex. 19, 4-hydroxy-5-methoxy-2-(3-oxo-3-phenyl-1-propenyl)-pyridine]: the inhibition at 100 mg/kg amounted to 0.9% in test [1], 30.6% in test [3], 8% in test [4] and 1.2% in test [6]. The inhibition at 1 µM in test [5] stood at 94.8%; in test [7] (10^-6 M) it was 98.1%. The inhibition at 10 µM in test [7] (10^-5 M) was 106%. The inhibition at 0.1 µM in test [7] (10^-7 M) worked out at 95.1%. In addition, the inhibition at 0.01 µM in test [7] (10^-8 M) came out at 83.8%.

For the origin of these results see US6046218A, “Pyridine derivative and medicament containing the same as an effective ingredient” (SS Pharmaceutical Co., Ltd., priority 1996, dated 2000).
